This passage reports IC50 results from ChEMBL document CHEMBL1136301, “1,2,5,6-tetra-O-benzyl-D-mannitol derivatives as novel HIV protease inhibitors” (Bioorg Med Chem Lett, 2003).

This assay addresses Human immunodeficiency virus type 1 protease (Human immunodeficiency virus 1, UniProt Q72874). Briefly: Inhibitory activity against HIV-1 protease.
Take `O[C@H]([C@H](O)[C@H](COCc1ccccc1)OCc1ccccc1)[C@@H](COCc1ccccc1)OCc1ccccc1`: the half-maximal inhibitory concentration (IC50) is over 50 µM.
With `O[C@H]([C@H](O)[C@@H](COCc1ccccc1)OCc1ccccc1)[C@@H](COCc1ccccc1)OCc1ccccc1` the figure was over 50 µM; with `O[C@@H]([C@H](O)[C@@H](COCc1ccccc1)OCc1ccccc1)[C@@H](COCc1ccccc1)OCc1ccccc1`, 2.4 µM; with `OC(C(COCc1ccccc1)OCc1c(F)cccc1F)C(O)C(COCc1ccccc1)OCc1c(F)cccc1F` (stereo not drawn), 6.4 µM.
Turning to `OC(C(COCc1ccccc1)OCc1ccccc1F)C(O)C(COCc1ccccc1)OCc1ccccc1F` (stereo not drawn), the midpoint of inhibition, the IC50, lay at 3.7 µM.
`OC(C(COCc1ccccc1)OCc1ccc(F)cc1F)C(O)C(COCc1ccccc1)OCc1ccc(F)cc1F` (stereo not drawn) returned an IC50 of 2.6 µM.
Turning to `OC(C(COCc1ccccc1)OCc1cccc(F)c1)C(O)C(COCc1ccccc1)OCc1cccc(F)c1` (stereo not drawn), the midpoint of inhibition, the IC50, lay at 1.8 µM.
With `Cc1ccc(COC(COCc2ccccc2)C(O)C(O)C(COCc2ccccc2)OCc2ccc(C)cc2)cc1` (stereo not drawn) the figure was 3.7 µM.
With `OC(C(COCc1ccccc1)OCc1ccc(C(F)(F)F)cc1)C(O)C(COCc1ccccc1)OCc1ccc(C(F)(F)F)cc1` (stereo not drawn) the figure was 10 µM; with `O[C@@H](C[C@@H](COCc1ccccc1)OCc1ccccc1)[C@@H](COCc1ccccc1)OCc1ccccc1`, over 50 µM; with `OC(C(COCc1c(F)cccc1F)OCc1ccc(F)cc1)C(O)C(COCc1c(F)cccc1F)OCc1ccc(F)cc1` (stereo not drawn), 0.33 µM.
Regarding `N#Cc1ccc(COC(COCc2ccccc2)C(O)C(O)C(COCc2ccccc2)OCc2ccc(C#N)cc2)cc1` (stereo not drawn), the IC50 was determined as 5.4 µM.
With `O[C@H]([C@@H](O)[C@H](COCc1ccccc1)OCc1ccccc1)[C@H](COCc1ccccc1)OCc1ccccc1` the figure was over 50 µM.
`OC(C(COCc1ccc(C(F)(F)F)cc1)OCc1ccc(C(F)(F)F)cc1)C(O)C(COCc1ccc(C(F)(F)F)cc1)OCc1ccc(C(F)(F)F)cc1` (stereo not drawn): the IC50 turned out to be 6 µM.
In the case of `OC(C(COCc1ccccc1)OCc1ccc(Br)cc1)C(O)C(COCc1ccccc1)OCc1ccc(Br)cc1` (stereo not drawn), the IC50 is 2.1 µM.
The value for `O=C(O)c1ccc(COCC(OCc2ccccc2)C(O)C(O)C(COCc2ccc(C(=O)O)cc2)OCc2ccccc2)cc1` (stereo not drawn) was 5 µM; that for `COC(=O)c1ccc(COC(COCc2ccccc2)C(O)C(O)C(COCc2ccccc2)OCc2ccc(C(=O)OC)cc2)cc1` (stereo not drawn) was 8.4 µM; that for `OC(C(COCc1ccccc1F)OCc1ccc(F)cc1)C(O)C(COCc1ccccc1F)OCc1ccc(F)cc1` (stereo not drawn) was 0.2 µM.
For `OC(C(COCc1ccccc1)OCc1ccc(Cl)cc1)C(O)C(COCc1ccccc1)OCc1ccc(Cl)cc1` (stereo not drawn), inhibition was half-maximal at 2 µM (IC50).
In turn, `OC(C(COCc1ccccc1)OCc1ccc(F)cc1)C(O)C(COCc1ccccc1)OCc1ccc(F)cc1` (stereo not drawn) showed an IC50 of 0.7 µM.
As to `N#Cc1ccc(COCC(OCc2ccc(C#N)cc2)C(O)C(O)C(COCc2ccc(C#N)cc2)OCc2ccc(C#N)cc2)cc1` (stereo not drawn), the 50% inhibitory concentration (IC50) is 3.1 µM.
With `Cc1ccc(COCC(OCc2ccccc2)C(O)C(O)C(COCc2ccc(C)cc2)OCc2ccccc2)cc1` (stereo not drawn) the figure was 3 µM; with `OC(C(COCc1ccccc1F)OCc1ccccc1)C(O)C(COCc1ccccc1F)OCc1ccccc1` (stereo not drawn), 0.6 µM.
As for `OCc1ccc(COC(COCc2ccccc2)C(O)C(O)C(COCc2ccccc2)OCc2ccc(CO)cc2)cc1` (stereo not drawn), the IC50 stood at 10 µM.
With `N#Cc1ccc(COCC(OCc2ccccc2)C(O)C(O)C(COCc2ccc(C#N)cc2)OCc2ccccc2)cc1` (stereo not drawn) the figure was 4.3 µM; with `O=C(O)c1ccc(COC(COCc2ccccc2)C(O)C(O)C(COCc2ccccc2)OCc2ccc(C(=O)O)cc2)cc1` (stereo not drawn), 26 µM.
`OC(C(COCc1cccc(F)c1)OCc1ccccc1)C(O)C(COCc1cccc(F)c1)OCc1ccccc1` (stereo not drawn) had an IC50 of 1.5 µM.
On to `NCc1ccc(COC(COCc2ccccc2)C(O)C(O)C(COCc2ccccc2)OCc2ccc(CN)cc2)cc1` (stereo not drawn), for which the midpoint of inhibition, the IC50, lay at 27 µM.
With `OC(C(COCc1ccc(Cl)cc1)OCc1ccccc1)C(O)C(COCc1ccc(Cl)cc1)OCc1ccccc1` (stereo not drawn), the IC50 was 5.2 µM.
`Cc1ccc(COCC(OCc2ccc(C)cc2)C(O)C(O)C(COCc2ccc(C)cc2)OCc2ccc(C)cc2)cc1` (stereo not drawn) had an IC50 of 7 µM.
In turn, `OC(C(COCc1ccc(F)cc1)OCc1ccc(F)cc1)C(O)C(COCc1ccc(F)cc1)OCc1ccc(F)cc1` (stereo not drawn) had an IC50 of 1.6 µM.
With `O[C@@H]([C@H](O)[C@@H](Cc1ccccc1)OCc1ccccc1)[C@@H](Cc1ccccc1)OCc1ccccc1` the figure was over 50 µM; with `OC(C(COCc1ccc(Br)cc1)OCc1ccccc1)C(O)C(COCc1ccc(Br)cc1)OCc1ccccc1` (stereo not drawn), 6 µM.
With `NC(=O)c1ccc(COC(COCc2ccccc2)C(O)C(O)C(COCc2ccccc2)OCc2ccc(C(N)=O)cc2)cc1` (stereo not drawn) the figure was 20 µM; with `OC(C(COCc1ccc(F)cc1)OCc1ccccc1)C(O)C(COCc1ccc(F)cc1)OCc1ccccc1` (stereo not drawn), 2.5 µM.
With `COC(=O)c1ccc(COCC(OCc2ccccc2)C(O)C(O)C(COCc2ccc(C(=O)OC)cc2)OCc2ccccc2)cc1` (stereo not drawn) the figure was 2 µM.
As for `OC(C(COCc1c(F)cccc1F)OCc1ccccc1)C(O)C(COCc1c(F)cccc1F)OCc1ccccc1` (stereo not drawn), the IC50 was 0.33 µM.
With `OC(C(COCc1ccc(F)cc1F)OCc1ccccc1)C(O)C(COCc1ccc(F)cc1F)OCc1ccccc1` (stereo not drawn) the figure was 4.2 µM; with `O[C@@H]([C@H](OCc1ccccc1)[C@H](COCc1ccccc1)OCc1ccccc1)[C@@H](COCc1ccccc1)OCc1ccccc1`, over 50 µM.
With `OC(C(COCc1ccc(C(F)(F)F)cc1)OCc1ccccc1)C(O)C(COCc1ccc(C(F)(F)F)cc1)OCc1ccccc1` (stereo not drawn) the figure was 5 µM.
In turn, `O[C@@H]([C@H](O)[C@@H](COc1ccccc1)OCc1ccccc1)[C@@H](COc1ccccc1)OCc1ccccc1` had an IC50 of over 50 µM.
With `Cc1ccccc1COC(COCc1ccccc1F)C(O)C(O)C(COCc1ccccc1F)OCc1ccccc1C` (stereo not drawn) the figure was 0.8 µM; with `OCc1ccc(COCC(OCc2ccccc2)C(O)C(O)C(COCc2ccc(CO)cc2)OCc2ccccc2)cc1` (stereo not drawn), 1.2 µM.
